From article PMC10304372, “T-705-Derived Prodrugs Show High Antiviral Efficacies against a Broad Range of Influenza A Viruses with Synergistic Effects When Combined with Oseltamivir” (Pharmaceutics, 2023)
Where two headings read alike, the source gives them in different places.

Columns and labels:
A/Victoria/03/75 (H3N2) = assay type: cell-based, influenza A virus
[1] = system: A/Hamburg/NY1580/09 (H1N1); assay: microbe, parasite or virus in culture; assay type: cell-based, influenza A virus; settings: for IC50: read-out: IC50 H1N1
A/Vietnam/1194/04 (H5N1) = assay: microbe, parasite or virus in culture; assay type: cell-based, influenza A virus; settings: for IC90: read-out: IC90 (90% inhibitory effect on viral replication), H5N1
A/Anhui/1/13 (H7N9) = assay: microbe, parasite or virus in culture; assay type: cell-based, influenza A virus; settings: for IC50: read-out: IC50 H7N9
H5N1 HPAIV = assay type: cell-based, influenza A virus
MDCKII cells = settings: for concentration from which considerable cell cytotoxicity was caused: dog
in vitro = settings: dog
[2] = system: RdRP subunit PA (polymerase acidic protein); settings: cited from earlier work
[3] = Influenza A virus, H1N1, MDCK-II, 24 h
[4] = Influenza A virus, H5N1, MDCK-II, 24 h, read-out: IC50 H5N1
[5] = Influenza A virus, H5N1, MDCK-II
[6] = Influenza A virus, H7N9, MDCK-II, 24 h

| Compound | antiviral activity against H3N2 IAV (in words) (A/Victoria/03/75 (H3N2)) | SI (selectivity index) H1N1 [1] | IC50 [1, 3] [nM] | SI (selectivity index) H5N1 (A/Vietnam/1194/04 (H5N1)) | IC50 (A/Vietnam/1194/04 (H5N1); [4]) [nM] | IC50 (A/Vietnam/1194/04 (H5N1); read-out: IC50 H5N1) [nM] | SI (selectivity index) H7N9 (A/Anhui/1/13 (H7N9)) | IC50 (A/Anhui/1/13 (H7N9); [6]) [nM] | concentration from which considerable cell cytotoxicity was caused (MDCKII cells) [µM] | CC50 (in vitro) [nM] | IC50 [1] [nM] | further results |
| --- | --- | --- | --- | --- | --- | --- | --- | --- | --- | --- | --- | --- |
| CCCCCCCCCC(=O)Oc1ccc(COP(=O)(OCc2ccc(OC(=O)CCCCCCCCC)cc2)OP(=O)(O)OC[C@H]2O[C@@H](n3ccnc(C(N)=O)c3=O)[C@H](O)[C@@H]2O)cc1 [3a] | reduced viral titers to the limit of detection | 643.9 | 130 ± 140 | 373.7 | 220 | 224 ± 230 | 1179.0 | 70 | ≥ 30 | > 50000 |  | increase in antiviral activity compared to 1a (T-705), H1N1 [1]: 10 fold; IC1 (1% inhibitory effect on viral replication), H5N1 (A/Vietnam/1194/04 (H5N1)): 0.0005 µM; IC10 (10% inhibitory effect on viral replication), H5N1 (A/Vietnam/1194/04 (H5N1)): 13.2 nM; reduction of H5N1 virus titers to the limit of detection (in words) (A/Vietnam/1194/04 (H5N1)): to the limit of detection; IC50 (A/Vietnam/1194/04 (H5N1); Influenza A virus, H5N1, MDCK-II, read-out: IC50, H5N1, as used for combination treatment): 267 nM; IC90 (A/Vietnam/1194/04 (H5N1); [5]): 5400 nM; more active than 1a against H7N9 (A/Anhui/1/13 (H7N9)): 10 fold; reduction of H7N9 virus titers to the limit of detection (in words) (A/Anhui/1/13 (H7N9)): to the limit of detection; IC50 (A/Anhui/1/13 (H7N9)): 71 ± 90 nM; interaction with oseltamivir against H5N1 (in words) (H5N1 HPAIV): strong synergistic effect |
| NC(=O)c1ncc[nH]c1=O [1b, T-1105, reference compound] |  |  |  |  |  |  |  |  |  |  |  | reduction of virus replication (A/Victoria/03/75 (H3N2)): approximately 1.5 logs |
| CCOC(=O)C1=C[C@@H](OC(CC)CC)[C@H](NC(C)=O)[C@@H](N)C1 [oseltamivir] |  |  |  |  |  |  |  |  |  | > 100000 |  | IC1 (1% inhibitory effect on viral replication), H5N1 (A/Vietnam/1194/04 (H5N1)): 0.00002 µM; IC10 (10% inhibitory effect on viral replication), H5N1 (A/Vietnam/1194/04 (H5N1)): 0.5 nM; IC50 (A/Vietnam/1194/04 (H5N1); Influenza A virus, H5N1, MDCK-II, 24 h, read-out: IC50 H5N1 (oseltamivir)): 8 nM; IC90 (A/Vietnam/1194/04 (H5N1); [5]): 127 nM |
| NC(=O)c1nccn([C@@H]2O[C@H](CO)[C@@H](O)[C@H]2O)c1=O [2a, T-1106] | slightly higher activity compared to T-1105 1b |  |  |  |  |  |  |  |  |  |  |  |
| NC(=O)c1nc(F)c[nH]c1=O [1a, T-705] |  |  | 1290 |  | 1140 | 1140 ± 1170 |  | 790 ± 540 |  | > 50000 | 1300 ± 1400 | reduction of virus replication (A/Victoria/03/75 (H3N2)): approximately 1.5 logs; effect on cell viability (in words) (MDCKII cells): did not affect cell viability |
| O=C1c2c(O)c(=O)ccn2N([C@@H]2c3ccccc3SCc3c2ccc(F)c3F)[C@@H]2COCCN12 [Baloxavir, baloxavir] |  |  |  |  |  |  |  |  |  |  |  | inhibitory activity on PA of various IAV subtypes incl. H5N1 and H7N9 (in words) [2]: pico- to nanomolar activity |
| CCCCCCCCCC(=O)Oc1ccc(COP(=O)(OCc2ccc(OC(=O)CCCCCCCCC)cc2)OP(=O)(O)OP(=O)(O)OC[C@H]2O[C@@H](n3ccnc(C(N)=O)c3=O)[C@H](O)[C@@H]2O)cc1 [4a, T-1106-C9C9-TriPPPro] | modest reduction in viral replication | 43.6 | 3320 | 460.2 | 310 | 314 ± 380 | 71.5 | 2020 ± 1230 | ≥ 30 | > 50000 | 3320 ± 4410 | antiviral activity against H7N9 compared to 1a (comparable or fold reduced) (A/Anhui/1/13 (H7N9)): 2.5 fold |
| CCCCCCCCCCCCCCC(=O)Oc1ccc(COP(=O)(OCc2ccc(OC(=O)CCCC)cc2)OP(=O)(O)OC[C@H]2O[C@@H](n3ccnc(C(N)=O)c3=O)[C@H](O)[C@@H]2O)cc1 (stereo partly drawn) [3b] | reduced viral titers to the limit of detection | 66.4 | 1490 | 850.9 | 120 | 116 ± 13 | 158.2 | 620 | ≥ 30 | > 50000 | 1490 ± 2360 | reduction of H5N1 virus titers to the limit of detection (in words) (A/Vietnam/1194/04 (H5N1)): to the limit of detection; antiviral activity against H7N9 compared to 1a (comparable or fold reduced) (A/Anhui/1/13 (H7N9)): comparable; reduction of H7N9 virus titers to the limit of detection (in words) (A/Anhui/1/13 (H7N9)): to the limit of detection; IC50 (A/Anhui/1/13 (H7N9)): 624 ± 1040 nM |
